Laboratory results reported in patent US10829473B2, “Modulators of the cystic fibrosis transmembrane conductance regulator protein and methods of use” (AbbVie Overseas S.Á.R.L., priority 2017, dated 2020).
Where two headings read alike, the source gives them in different places. Marks after values point to notes of the source that are not given here.

Target: T1, F508delCFTR (Homo sapiens, UniProt P13569, DEL508-508)
T1 construct: expressed in transfected cells; host or cells: CFBE41o- human lung derived epithelial cells (CFBE41o-F508delCFTR-HRP), doxycycline-inducible
Experiment: Cell Surface Expression-Horse Radish Peroxidase (CSE-HRP) Assay;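 for EC50 (with co-corrector): co-corrector chromenyl benzoic acid corrector at 2 or 3 µM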;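 for Maximum % activity (without co-corrector): % of on-plate positive control chromenyl benzoic acid corrector at 2 or 3 µM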
Format: cell-based
Details: for Maximum % activity (with co-corrector) / Emax: maximum at any tested concentration; for Emax: read-out: Maximum % activity (without co-corrector)
Outline: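 Corrector compounds were given as 8-point 3-fold series from 20 or 30 μM, with or without a 2 μM co-corrector, for 18-24 h at 33 °C. Surface HRP was read by luminol luminescence as % of positive control; variable-Hill-slope sigmoidal fitting gave EC50 from triplicate plates.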

[1] = test compound alone, without co-corrector, read-out: EC50 (without co-corrector)
[2] = with co-corrector, read-out: EC50 (with co-corrector)
[3] = test compound with co-corrector
[4] = test compound without co-corrector
[5] = test compound with co-corrector, read-out: EC50 (with co-corrector)
[6] = test compound without co-corrector, read-out: EC50 (without co-corrector)

T1 sequence (P13569 with tags, fused parts or gaps DEL508-508): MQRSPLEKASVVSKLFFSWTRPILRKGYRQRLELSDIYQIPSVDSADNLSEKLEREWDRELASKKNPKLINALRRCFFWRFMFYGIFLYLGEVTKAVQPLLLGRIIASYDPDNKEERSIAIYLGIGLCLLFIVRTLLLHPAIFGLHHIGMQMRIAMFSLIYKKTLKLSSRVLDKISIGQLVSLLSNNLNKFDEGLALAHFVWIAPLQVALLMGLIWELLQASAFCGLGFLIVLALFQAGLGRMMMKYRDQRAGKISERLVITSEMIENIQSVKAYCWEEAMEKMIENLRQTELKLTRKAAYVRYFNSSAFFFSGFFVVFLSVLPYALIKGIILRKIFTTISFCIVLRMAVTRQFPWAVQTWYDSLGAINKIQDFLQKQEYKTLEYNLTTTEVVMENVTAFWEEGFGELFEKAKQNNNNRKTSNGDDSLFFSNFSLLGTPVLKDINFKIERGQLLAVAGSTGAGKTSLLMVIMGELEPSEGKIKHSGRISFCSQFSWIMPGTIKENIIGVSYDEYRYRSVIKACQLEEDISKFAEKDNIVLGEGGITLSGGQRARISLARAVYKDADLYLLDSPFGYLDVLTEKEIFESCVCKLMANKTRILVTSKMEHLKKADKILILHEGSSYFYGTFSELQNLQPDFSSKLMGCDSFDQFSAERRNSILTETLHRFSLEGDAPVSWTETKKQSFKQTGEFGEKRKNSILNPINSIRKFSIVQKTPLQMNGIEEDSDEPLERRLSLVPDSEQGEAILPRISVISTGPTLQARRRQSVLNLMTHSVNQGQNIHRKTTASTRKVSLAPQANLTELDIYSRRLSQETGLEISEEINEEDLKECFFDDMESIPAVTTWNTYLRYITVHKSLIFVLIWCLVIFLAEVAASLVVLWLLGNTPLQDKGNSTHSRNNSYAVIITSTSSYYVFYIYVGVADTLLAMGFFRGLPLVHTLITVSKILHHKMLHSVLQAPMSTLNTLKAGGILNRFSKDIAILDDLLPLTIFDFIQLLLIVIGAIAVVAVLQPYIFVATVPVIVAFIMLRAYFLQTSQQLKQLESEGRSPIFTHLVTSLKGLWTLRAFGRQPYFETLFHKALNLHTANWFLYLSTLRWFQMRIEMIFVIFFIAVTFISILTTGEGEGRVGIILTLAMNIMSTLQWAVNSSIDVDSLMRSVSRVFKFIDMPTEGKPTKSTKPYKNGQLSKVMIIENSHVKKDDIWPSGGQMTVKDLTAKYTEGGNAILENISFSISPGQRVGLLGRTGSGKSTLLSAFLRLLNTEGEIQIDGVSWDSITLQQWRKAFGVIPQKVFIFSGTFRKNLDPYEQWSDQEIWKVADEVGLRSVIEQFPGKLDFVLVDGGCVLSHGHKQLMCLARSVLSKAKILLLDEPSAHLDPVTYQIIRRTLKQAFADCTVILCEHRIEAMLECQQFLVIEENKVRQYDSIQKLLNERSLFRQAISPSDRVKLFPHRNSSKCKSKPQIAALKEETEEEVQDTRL

SMILES	EC50 [1]	Maximum % activity (with co-corrector) (with co-corrector)	EC50 [2]	Emax (without co-corrector)	EC50 (with co-corrector) [3]	Maximum % activity (with co-corrector) [3]	EC50 (without co-corrector) [4]	Emax [4]	EC50 [5]	EC50 [6]
O=C(NS(=O)(=O)Cc1ccccc1)C1(c2cccc(Cl)c2)CC1 [Example III-109, 1-(3-chlorophenyl)-N-(phenylmethanesulfonyl)cyclopropane-1-carboxamide]	> 10 µM	+ (<150)	> 10 µM	< 50%						
Cc1ccc(C2(C(=O)NS(=O)(=O)Cc3ccccc3)CC2)cc1 [Example III-111, 1-(4-methylphenyl)-N-(phenylmethanesulfonyl)cyclopropane-1-carboxamide]	> 10 µM	++ (≥150 and <350)	3 to 10 µM	< 50%						
O=C(NS(=O)(=O)Cc1ccccc1)C1(c2ccc(F)cc2)CC1 [Example III-112, 1-(4-fluorophenyl)-N-(phenylmethanesulfonyl)cyclopropane-1-carboxamide]	> 10 µM	+ (<150)	> 10 µM	< 50%						
O=C(NS(=O)(=O)Cc1ccccc1)C1(c2ccccc2Cl)CC1 [Example III-113, 1-(2-chlorophenyl)-N-(phenylmethanesulfonyl)cyclopropane-1-carboxamide]	> 10 µM	++ (≥150 and <350)	3 to 10 µM	< 50%						
O=C(NS(=O)(=O)Cc1ccccc1)C1(c2ccc(Cl)cc2)CC1 [Example III-114, 1-(4-chlorophenyl)-N-(phenylmethanesulfonyl)cyclopropane-1-carboxamide]	> 10 µM	+ (<150)	3 to 10 µM	< 50%						
O=C(NS(=O)(=O)Cc1ccccc1)C1(c2ccc(Cl)c(Cl)c2)CC1 [Example III-115, 1-(3,4-dichlorophenyl)-N-(phenylmethanesulfonyl)cyclopropane-1-carboxamide]	> 10 µM	+ (<150)	> 10 µM	< 50%						
CCC(CC)S(=O)(=O)NC(=O)C1(c2ccccc2)CC1 [Example III-116, N-(pentane-3-sulfonyl)-1-phenylcyclopropane-1-carboxamide]	> 10 µM	+ (<150)	> 10 µM	< 50%						
CCCS(=O)(=O)NC(=O)C1(c2cccc(OC)c2)CCOCC1 [Example III-119, 4-(3-methoxyphenyl)-N-(propane-1-sulfonyl)oxane-4-carboxamide]	> 10 µM	+ (<150)	> 10 µM	< 50%						
CCCS(=O)(=O)NC(=O)C1(c2cccc(C)c2)CCOCC1 [Example III-120, 4-(3-methylphenyl)-N-(propane-1-sulfonyl)oxane-4-carboxamide]	> 10 µM	+ (<150)	> 10 µM	< 50%						
COc1ccc(C2(C(=O)NS(=O)(=O)c3cccc4ccccc34)CCC2)cc1OC [Example III-121, 1-(3,4-dimethoxyphenyl)-N-(naphthalene-1-sulfonyl)cyclobutane-1-carboxamide]	> 10 µM	+ (<150)	> 10 µM	< 50%						
COc1cccc(-c2cnn(C)c2)c1C1(C(=O)NS(=O)(=O)c2cccc3ncccc23)CC1 [Example III-122, 1-[2-methoxy-6-(1-methyl-1H-pyrazol-4-yl)phenyl]-N-(quinoline-5-sulfonyl)cyclopropane-1-carboxamide]	3 to 10 µM	+++ (≥350)	3 to 10 µM	> 150%						
COc1cc(C2CCC2)cc(OC)c1C1(C(=O)NS(=O)(=O)c2cccc3ncn(C)c23)CC1 [Example III-123, 1-(4-cyclobutyl-2,6-dimethoxyphenyl)-N-(1-methyl-1H-benzimidazole-7-sulfonyl)cyclopropane-1-carboxamide]	3 to 10 µM	+++ (≥350)	< 3 µM	> 150%						
COc1ccc(C)nc1C1(C(=O)NS(=O)(=O)c2cccc3ncccc23)CC1 [Example III-124, 1-(3-methoxy-6-methylpyridin-2-yl)-N-(quinoline-5-sulfonyl)cyclopropane-1-carboxamide]	3 to 10 µM	+++ (≥350)	3 to 10 µM	50 to 150%						
COc1ccc(C)nc1C1(C(=O)NS(=O)(=O)c2cccc3ccccc23)CC1 [Example III-125, 1-(3-methoxy-6-methylpyridin-2-yl)-N-(naphthalene-1-sulfonyl)cyclopropane-1-carboxamide]	3 to 10 µM	+++ (≥350)	3 to 10 µM	> 150%						
COc1ccc(C)nc1C1(C(=O)NS(=O)(=O)c2cccc3nc(C)ccc23)CC1 [Example III-126, 1-(3-methoxy-6-methylpyridin-2-yl)-N-(2-methylquinoline-5-sulfonyl)cyclopropane-1-carboxamide]	< 3 µM	++ (≥150 and <350)	< 3 µM	50 to 150%						
Cc1ccc(C)c(C2(C(=O)NS(=O)(=O)c3cccc4[nH]ncc34)CC2)c1 [Example III-127, 1-(2,5-dimethylphenyl)-N-(1H-indazole-4-sulfonyl)cyclopropane-1-carboxamide]	3 to 10 µM	+++ (≥350)	< 3 µM	> 150%						
COc1ccc(C2(OC)COC2)cc1C1(C(=O)NS(=O)(=O)c2cccc3ncccc23)CC1 [Example III-128, 1-[2-methoxy-5-(3-methoxyoxetan-3-yl)phenyl]-N-(quinoline-5-sulfonyl)cyclopropane-1-carboxamide]	3 to 10 µM	++ (≥150 and <350)	3 to 10 µM	< 50%						
[2H]C1(c2ccc(OC)c(C3(C(=O)NS(=O)(=O)c4cccc5ncccc45)CC3)c2)COC1 [Example III-129, 1-{2-methoxy-5-[(3-^2H)oxetan-3-yl]phenyl}-N-(quinoline-5-sulfonyl)cyclopropane-1-carboxamide]	3 to 10 µM	+++ (≥350)	3 to 10 µM	> 150%						
Cc1cnc(OCC(C)C)c(C2(C(=O)NS(=O)(=O)c3cccc4[nH]ncc34)CC2)c1 [Example III-130, N-(1H-indazole-4-sulfonyl)-1-[5-methyl-2-(2-methylpropoxy)pyridin-3-yl]cyclopropane-1-carboxamide]	3 to 10 µM	+++ (≥350)	< 3 µM	> 150%						
Cc1cnc(OC(C)C)c(C2(C(=O)NS(=O)(=O)c3cccc4[nH]ncc34)CC2)c1 [Example III-131, N-(1H-indazole-4-sulfonyl)-1-{5-methyl-2-[(propan-2-yl)oxy]pyridin-3-yl}cyclopropane-1-carboxamide]	3 to 10 µM	+++ (≥350)	3 to 10 µM	> 150%						
CCc1cccc(OC)c1C1(C(=O)NS(=O)(=O)c2cccc3[nH]ncc23)CC1 [Example III-132, 1-(2-ethyl-6-methoxyphenyl)-N-(lH-indazole-4-sulfonyl)cyclopropane-1-carboxamide]	< 3 µM	+++ (≥350)	< 3 µM	> 150%						
CCc1cccc(OC)c1C1(C(=O)NS(=O)(=O)c2cccc3nc(C)ccc23)CC1 [Example III-133, 1-(2-ethyl-6-methoxyphenyl)-N-(2-methylquinoline-5-sulfonyl)cyclopropane-1-carboxamide]	< 3 µM	+++ (≥350)	< 3 µM	> 150%						
CCOc1ccc(C)cc1C1(C(=O)NS(=O)(=O)c2cccc3nc(N(C)C)ccc23)CC1 [Example III-134, N-[2-(dimethylamino)quinoline-5-sulfonyl]-1-(2-ethoxy-5-methylphenyl)cyclopropane-1-carboxamide]	< 3 µM	+++ (≥350)	< 3 µM	> 150%						
COc1ncc(C2(C(=O)NS(=O)(=O)c3cccc4ccccc34)CC2)c(OC)n1 [GII-1, 1-(2,4-dimethoxypyrimidin-5-yl)-N-(naphthalene-1-sulfonyl)cyclopropane-1-carboxamide]					++^a	++ (≥150 and <350)	++^a	< 50%		
CC(C)Oc1ncccc1C1(C(=O)NS(=O)(=O)c2cccc3ccccc23)CC1 [GII-2, N-(naphthalene-1-sulfonyl)-1-{2-[(propan-2-yl)oxy]pyridin-3-yl}cyclopropane-1-carboxamide]						++ (≥150 and <350)		50 to 150%	3 to 10 µM	3 to 10 µM
CC(C)Oc1ncccc1C1(C(=O)NS(=O)(=O)c2cccc3ncccc23)CC1 [GII-3, 1-{2-[(propan-2-yl)oxy]pyridin-3-yl}-N-(quinoline-5-sulfonyl)cyclopropane-1-carboxamide]						++ (≥150 and <350)		50 to 150%	3 to 10 µM	3 to 10 µM
CC(C)Oc1ncccc1C1(C(=O)NS(=O)(=O)c2cccc3c2CCCN3)CC1 [GII-4, 1-{2-[(propan-2-yl)oxy]pyridin-3-yl}-N-(1,2,3,4-tetrahydroquinoline-5-sulfonyl)cyclopropane-1-carboxamide]						++ (≥150 and <350)		50 to 150%	3 to 10 µM	3 to 10 µM
